The values that follow come from publication PMC7998855 (Toxins, 2021).

Series [1] relates to differentiated C2BBe1 cells. Format: cell-based, human. The following applies: for TEER, normalized to solvent control: SD.
The test system of series [2] is differentiated Caco-2 (C2BBe1) cell monolayer. It is filed as cell-based, human. As to conditions: 24 h incubation with toxin (CER 1-100 ng/mL, DON 0.1-10 µg/mL), then 0.1 mg/mL LY apical in HBSS pH 7.4, 1 h, 37 °C, basolateral fluorescence, 3 biological replicates.
For series [3], the system named is tight junction protein claudin-4 (CLD-4). Description: Immunofluorescence staining of claudin-4. Format: cell-based, human. As to conditions: 24 h, mean ± SD, 3 biological replicates, at least 9 optical fields.
Series [4] concerns mucin 5AC. Description: Immunofluorescence staining of mucin 5AC. It is filed as cell-based, human. The following applies: 24 h, 3 biological replicates; for mucin 5AC fluorescence intensity compared to the solvent control: mean ± SD, SD.
Series [5] has as its system differentiated Caco-2 cells. The series is described as follows: LC-MS/MS of CER in transwell compartments (uptake). As to conditions: 24 h; for CER concentration in basolateral medium: apical application, mean ± SD, 3 biological replicates, SD. It is filed as in vitro ADME, human.
The subject of series [6] is differentiated Caco-2 (C2BBe1) cells.
Series [7] has as its system mucin 5AC. The following applies: 2 µM DON, 48 h incubation; cited from earlier work. As for the experimental part: In addition to the investigation of barrier integrity, interest in the influence of mycotoxins on the intestinal mucus layer recently emerged, whereby data is still scarce. […] In addition to the different incubation times a ...

Where “and” joins values, the source holds several entries; their conditions need not be identical. Equal values may be shown once. Some results are limits rather than exact numbers.

cereulide: the TEER result in series [1] is given as “no impact”. The “TEER, normalized to solvent control” value in series [1] is 193 ± 7% and 163 ± 34%. Also, the “Effect on paracellular passage of Lucifer Yellow” value in series [2] is “no significant effects”. For the same compound, the “CLD-4 immunofluorescence intensity in comparison to the solvent control” value in series [3] (10 ng/mL CER) worked out at 173 ± 41%; in series [3] (100 ng/mL CER) it was 138 ± 49%. Besides, the figures for the “mucin 5AC fluorescence intensity compared to the solvent control” value in the series with mucin 5AC [4] (10 ng/mL CER) and in the series with mucin 5AC [4] (100 ng/mL CER) were 80 ± 14% and 73 ± 20%, respectively. For the same compound, the “CER concentration in basolateral medium” value was 0.07 ± 0.05 ng/mL medium in series [5] (100 ng/mL CER with 10 µg/mL DON, transwell) and 0.04 ± 0.02 ng/mL medium in series [5] (100 ng/mL CER without DON, transwell). For the same compound, the “CER in cell lysates” value in series [5] (1-100 ng/mL CER with or without DON) is “detected in the cell lysates of all samples”. For the same compound, the “CER in the apical compartment” value in series [5] (1-100 ng/mL CER with or without DON, transwell) is given as “quantified in all treatment conditions”.

For the compound `CC1=C[C@H]2O[C@@H]3[C@H](O)C[C@](C)([C@@]2(CO)[C@H](O)C1=O)[C@]31CO1` [DON, deoxynivalenol], in series [1], the “TEER, normalized to solvent control” value was 116 ± 12% and 116 ± 6%. For the same compound, in series [2], the “Effect on paracellular passage of Lucifer Yellow” value is reported as “no significant effects”. Also, the “CLD-4 immunofluorescence intensity in comparison to the solvent control” value in series [3] (10 µg/mL DON) was 127 ± 38%. The “mucin 5AC fluorescence intensity vs solvent control” value in the series with mucin 5AC [4] (DON alone (1 and 10 µg/mL)) is reported as “no significant effect”. For the same compound, in series [6], the “DON concentration in cell lysates” value was “< LOD”; the “Detection of DON in apical medium, basolateral medium and cell lysates” value was “detected in all compartments and incubation conditions, except the cell lysates treated with the lowest toxin concentration”. Besides, in the series with mucin 5AC [7], the “mucin 5AC in cell lysates of Caco-2 cells” value is given as “upregulation of mucin 5AC”.
